For series [1], the system named is Rattus norvegicus. The series is described as follows: Anti-inflammatory activity carrageenan-induced paw edema in Rattus norvegicus albino (rat) assessed as paw thickness at 9 mg/kg, ip administered 1 hr prior to carrageenan-induced measured 4 hr post challenge. Type of series: functional. The settings on record: route intraperitoneal. For orientation: Carrageenan injected into the paw causes an acute inflammation.

For series [2], the system named is Rattus norvegicus. The series is described as follows: Anti-inflammatory activity inRattus norvegicus albino (rat) assessed as reduction in carrageenan-induced paw edema at 10 mg/kg, ip administered 1 hr prior to carrageenan-induced measured 1 to 4 hr post challenge relative to indomethacin. Type of series: functional. Also on record: scale not given: the % may be the effect or the level left. Conditions: route intraperitoneal.

Series [3] concerns Rattus norvegicus. In words: Anti-inflammatory activity carrageenan-induced paw edema inRattus norvegicus albino (rat) assessed as paw thickness at 9 mg/kg, ip administered 1 hr prior to carrageenan-induced measured 2 hr post challenge. Type of series: functional. Conditions: route intraperitoneal.
Series [4] concerns Rattus norvegicus. In words: Anti-inflammatory activity carrageenan-induced paw edema in Rattus norvegicus albino (rat) at 9 mg/kg, ip administered 1 hr prior to carrageenan-induced measured 1 to 4 hr post challenge relative to control. Type of series: functional. Conditions: route intraperitoneal.
For series [5], the system named is Rattus norvegicus. In words: Anti-inflammatory activity carrageenan-induced paw edema inRattus norvegicus albino (rat) assessed as paw thickness at 9 mg/kg, ip administered 1 hr prior to carrageenan-induced measured 3 hr post challenge. Type of series: functional. The settings on record: route intraperitoneal.
In series [6] the test system is Rattus norvegicus. The series is described as follows: Ulcerogenicity in Rattus norvegicus albino (rat) at 0.9 mg/100 g/day, po qd for 3 successive days. Type of series: toxicity, organism-based. Conditions: in vivo.
The test system of series [7] is Rattus norvegicus. The series is described as follows: Anti-inflammatory activity carrageenan-induced paw edema inRattus norvegicus albino (rat) assessed as paw thickness at 9 mg/kg, ip administered 1 hr prior to carrageenan-induced measured 1 hr post challenge. Type of series: functional. Conditions: route intraperitoneal.
The subject of series [8] is Rattus norvegicus. In words: Ulcerogenicity in Rattus norvegicus albino (rat) at 9 mg/kg/day, po qd for 3 successive days. Type of series: toxicity, organism-based. On the set-up: route oral. Conditions: in vivo.
Series [9] has as its system Rattus norvegicus. In words: Anti-inflammatory activity carrageenan-induced paw edema in Rattus norvegicus albino (rat) assessed as paw thickness at 10 mg/kg, ip administered 1 hr prior to carrageenan-induced measured 4 hr post challenge. Type of series: functional. The settings on record: route intraperitoneal.
For series [10], the system named is Rattus norvegicus. The series is described as follows: Anti-inflammatory activity carrageenan-induced paw edema in Rattus norvegicus albino (rat) assessed as paw thickness at 10 mg/kg, ip administered 1 hr prior to carrageenan-induced measured 3 hr post challenge. Type of series: functional. The settings on record: route intraperitoneal.
Series [11] relates to Rattus norvegicus. In words: Anti-inflammatory activity carrageenan-induced paw edema in Rattus norvegicus albino (rat) assessed as paw thickness at 10 mg/kg, ip administered 1 hr prior to carrageenan-induced measured 2 hr post challenge. The settings on record: route intraperitoneal. Type of series: functional.
Series [12] relates to Rattus norvegicus. The series is described as follows: Anti-inflammatory activity carrageenan-induced paw edema in Rattus norvegicus albino (rat) at 10 mg/kg, ip administered 1 hr prior to carrageenan-induced measured 1 to 4 hr post challenge relative to control. The settings on record: route intraperitoneal. Type of series: functional.
The subject of series [13] is Rattus norvegicus. The series is described as follows: Anti-inflammatory activity carrageenan-induced paw edema in Rattus norvegicus albino (rat) assessed as paw thickness at 10 mg/kg, ip administered 1 hr prior to carrageenan-induced measured 1 hr post challenge. Type of series: functional. The settings on record: route intraperitoneal.

For `Cc1ccc(NC(=O)Cn2nnc3ccccc3c2=O)cc1`, the Activity was found to be 4.12 mm in the series on Rattus norvegicus [1]; 36.7746% in the series with Rattus norvegicus [2]; 3.1 mm in the series with Rattus norvegicus [3]; 63.23% in the series with Rattus norvegicus [4]; 4 mm with Rattus norvegicus [5]; 2.62 mm in the series with Rattus norvegicus [7]. Also, the UI with Rattus norvegicus [6] is recorded as 140.
For `Cc1ccc(C)n1NC(=O)Cn1nnc2ccccc2c1=O`, the Activity in the series on Rattus norvegicus [1] stood at 4.25 mm; with Rattus norvegicus [2], 34.046%; in the series on Rattus norvegicus [3] it was 4.75 mm; in the series with Rattus norvegicus [4] it was 65.95%; in the series with Rattus norvegicus [5] it was 4.75 mm; in the series with Rattus norvegicus [7] it was 3.75 mm. Besides, the UI with Rattus norvegicus [6] is recorded as 220.
Regarding `Cc1cc(C)n(C(=O)Cn2nnc3ccccc3c2=O)n1`, the Activity with Rattus norvegicus [1] came to 3.75 mm; in the series on Rattus norvegicus [2] it was 33.313%; with Rattus norvegicus [3], 2.75 mm; with Rattus norvegicus [4] it was 66.69%; in the series on Rattus norvegicus [5], 3.5 mm; in the series with Rattus norvegicus [7], 2.12 mm. This compound also showed a UI in the series on Rattus norvegicus [6] of 140.
For `Cc1cc(-c2ccccc2)n(C(=O)Cn2nnc3ccccc3c2=O)n1`, the Activity was 3.75 mm in the series on Rattus norvegicus [1]; 54.2048% with Rattus norvegicus [2]; 4.37 mm in the series with Rattus norvegicus [3]; 45.8% in the series with Rattus norvegicus [4]; 4.5 mm in the series on Rattus norvegicus [5]; 3.25 mm in the series with Rattus norvegicus [7]. For the same compound, the UI in the series with Rattus norvegicus [6] is given as 120.
Consider `O=c1c2ccccc2nnn1Cc1nnc(Nc2ccccc2)s1`, for which the Activity in the series with Rattus norvegicus [1] is reported as 5.25 mm; in the series with Rattus norvegicus [2], 29.3016%; in the series with Rattus norvegicus [3] it was 4.2 mm; in the series on Rattus norvegicus [4], 70.7%; in the series on Rattus norvegicus [5] it was 4.62 mm; in the series with Rattus norvegicus [7] it was 3.75 mm. Besides, in the series with Rattus norvegicus [6], the UI turned out to be 340.
With `O=c1c2ccccc2nnn1Cc1nnc(Nc2ccccc2)o1`, the Activity in the series on Rattus norvegicus [1] is listed as 5.25 mm; in the series on Rattus norvegicus [2], 29.3016%; in the series on Rattus norvegicus [3], 4.2 mm; in the series on Rattus norvegicus [4], 70.7%; with Rattus norvegicus [5] it was 4.62 mm; in the series on Rattus norvegicus [7], 3.75 mm. The UI with Rattus norvegicus [6] worked out at 340.
As to `O=C(Cn1nnc2ccccc2c1=O)N/N=c1/scc(-c2ccccc2)n1-c1ccccc1`, the Activity turned out to be 5.12 mm in the series on Rattus norvegicus [1]; 45.9377% with Rattus norvegicus [2]; 4.75 mm in the series with Rattus norvegicus [3]; 54.06% with Rattus norvegicus [4]; 5 mm in the series on Rattus norvegicus [5]; 4 mm in the series on Rattus norvegicus [7]. Also, the UI with Rattus norvegicus [6] stood at 300.
Take `COc1cccc(NC(=O)Cn2nnc3ccccc3c2=O)c1`: the Activity with Rattus norvegicus [1] was 3.25 mm; with Rattus norvegicus [2] it was 38.7294%; in the series with Rattus norvegicus [3], 3.12 mm; in the series with Rattus norvegicus [4], 61.27%; with Rattus norvegicus [5], 3.25 mm; in the series on Rattus norvegicus [7], 2.75 mm. Also, in the series with Rattus norvegicus [6], the UI was 240.
Turning to `COc1ccccc1NC(=O)Cn1nnc2ccccc2c1=O`, the Activity in the series with Rattus norvegicus [1] was found to be 4.25 mm; in the series with Rattus norvegicus [2], 52.1686%; in the series with Rattus norvegicus [3], 5.25 mm; in the series on Rattus norvegicus [4], 47.8314%; in the series with Rattus norvegicus [5] it was 4 mm; in the series on Rattus norvegicus [7], 3.8 mm. Also, the UI with Rattus norvegicus [6] came out at 210.
For `Cc1ccccc1NC(=O)Cn1nnc2ccccc2c1=O`, the Activity in the series with Rattus norvegicus [1] is given as 4.25 mm; in the series on Rattus norvegicus [2] it was 33.9238%; with Rattus norvegicus [3], 4 mm; in the series on Rattus norvegicus [4], 66.08%; with Rattus norvegicus [5], 4 mm; with Rattus norvegicus [7], 4.4 mm. In the series on Rattus norvegicus [6], this compound had a UI of 240.
As for `CC(=O)c1ccc(NC(=O)Cn2nnc3ccccc3c2=O)cc1`, the Activity in the series with Rattus norvegicus [1] was found to be 4.37 mm; in the series on Rattus norvegicus [2] it was 47.7499%; with Rattus norvegicus [3] it was 3.87 mm; with Rattus norvegicus [4] it was 52.25%; in the series on Rattus norvegicus [5] it was 3.37 mm; with Rattus norvegicus [7], 3.87 mm. In the series on Rattus norvegicus [6], the UI was 130.
`O=C(Cn1nnc2ccccc2c1=O)Nc1ccccc1`: the Activity amounted to 3.8 mm in the series on Rattus norvegicus [1]; 41.7838% in the series with Rattus norvegicus [2]; 4.25 mm in the series on Rattus norvegicus [3]; 58.22% with Rattus norvegicus [4]; 4.1 mm in the series with Rattus norvegicus [5]; 4.5 mm with Rattus norvegicus [7]. Also, in the series on Rattus norvegicus [6], the UI is given as 300.
For the compound `Cc1ccc(-c2cc(C(F)(F)F)nn2-c2ccc(S(N)(=O)=O)cc2)cc1` [CELECOXIB], the Activity is 3.87 mm with Rattus norvegicus [1]; 57.0556% in the series on Rattus norvegicus [2]; 3.37 mm in the series with Rattus norvegicus [3]; 42.94% with Rattus norvegicus [4]; 3.75 mm in the series on Rattus norvegicus [5]; 3.22 mm in the series on Rattus norvegicus [7]. The compound also yielded a UI in the series on Rattus norvegicus [8] of 120.
With `COc1ccc2c(c1)c(CC(=O)O)c(C)n2C(=O)c1ccc(Cl)cc1` [INDOMETHACIN], the Activity stood at 3.75 mm in the series on Rattus norvegicus [9]; 3.25 mm with Rattus norvegicus [10]; 2.25 mm in the series with Rattus norvegicus [11]; 100% in the series with Rattus norvegicus [12]; 2.12 mm in the series with Rattus norvegicus [13]. For the same compound, in the series on Rattus norvegicus [8], the UI turned out to be 450.

For the origin of these results see ChEMBL document CHEMBL3045134, “Synthesis, molecular modeling and anti-inflammatory screening of new 1,2,3-benzotriazinone derivatives” (Med Chem Res, 2012).
